Columns and labels:
human estrogen receptor = molecular target: T1, human estrogen receptor (Homo sapiens, UniProt P03372); assay: 2×VIT ERE Infection Assay (luciferase); assay type: cell-based; details: CHO, 24 h; for Emax at 1 µM: read-out: Infection Luciferase Activity, 1 uM; for activity at 1 µM: read-out: Infection Luciferase Activity, 1 uM + 17β estradiol
T1 construct: expressed in transfected cells; host or cells: Chinese Hamster Ovary (CHO) cells, stably transfected
Description: Chinese Hamster Ovary cells (CHO) which had been stably transfected with the human estrogen receptor were maintained in DMEM+10% fetal bovine serum (FBS). 48h prior to treatment the growth medium was replaced with DMEM lacking phenol red+10% dextran coated charcoal stripped FBS (treatment medium). Cells were plated at a density of 5000 cells/well in 96-well plates containing 200 μL of medium/well.
Reporter DNA (Promega plasmid pGL2 containing two tandem copies of the vitellogenin ERE in front of the minimal thymidine kinase promoter driving the luciferase gene) was combined with the B-galactosidase expression plasmid pCH 110 (Pharmacia) and carrier DNA (pTZ18U) in the following ratio:
20 uG of DNA1 mL of transfection solution
The DNA (20uG) was dissolved in 500 uL of 250 mM sterile CaCl2 and added dropwise to 500 uL of 2×HeBS (0.28 M NaCl, 50 mM HEPES, 1.5 mM Na2 HPO4, pH 7.05) and incubated at room temperature for 20 minutes. 20 uL of this mixture was added to each well of cells and remained on the cells for 16 h. […] Each treatment condition was performed on 8 wells (n=8) which were incubated for 24 h prior to the luciferase assay.
After 24 h exposure to compounds, the media was removed and each well washed 2× with 125 uL of PBS lacking Mg^++ and Ca^++. After removing the PBS, 25 uL of Promega lysis buffer was added to each well and allowed to stand at room temperature for 15 min, followed by 15 min at -80° C. and 15 min at 37° C. 20 uL of lysate was transferred to an opaque 96 well plate for luciferase activity evaluation and the remaining lysate (5 uL) was used for the B-galactosidase activity evaluation (normalize transfection). The luciferan substrate (Promega) was added in 100 uL aliquots to each well automatically by the luminometer and the light produced (relative light units) was read 10 seconds after addition.
To the remaining 5 uL of lysate 45 uL of PBS was added. Then 50 uL of Promega B-galactosidase 2× assay buffer was added, mixed well and incubated at 37° C. for 1 hour. A plate containing a standard curve (0.1 to 1.5 milliunits in triplicate) was set up for each experimental run. The plates were analyzed on a Molecular Devices spectrophotometric plate reader at 410 nm. The optical densities for the unknown were converted to milliunits of activity by mathematical extrapolation from the standard curve.
The luciferase data was generated as relative light units (RLUs) accumulated during a 10 second measurement and automatically transferred to a JMP (SAS Inc) file where background RLUs were subtracted. The B-galactosidase values were automatically imported into the file and these values were divided into the RLUs to normalize the data. The mean and standard deviations were determined from a n=8 for each treatment.

estrogen receptor = molecular target: T2, estrogen receptor (Homo sapiens, UniProt P03372); assay: In vitro Estrogen Receptor Binding Assay; details: comparison / general statement in words
T2 construct: made in house; host or cells: CHO cells overexpressing the receptor; 100,000 g cytosol
T2 sequence (P03372 1-595): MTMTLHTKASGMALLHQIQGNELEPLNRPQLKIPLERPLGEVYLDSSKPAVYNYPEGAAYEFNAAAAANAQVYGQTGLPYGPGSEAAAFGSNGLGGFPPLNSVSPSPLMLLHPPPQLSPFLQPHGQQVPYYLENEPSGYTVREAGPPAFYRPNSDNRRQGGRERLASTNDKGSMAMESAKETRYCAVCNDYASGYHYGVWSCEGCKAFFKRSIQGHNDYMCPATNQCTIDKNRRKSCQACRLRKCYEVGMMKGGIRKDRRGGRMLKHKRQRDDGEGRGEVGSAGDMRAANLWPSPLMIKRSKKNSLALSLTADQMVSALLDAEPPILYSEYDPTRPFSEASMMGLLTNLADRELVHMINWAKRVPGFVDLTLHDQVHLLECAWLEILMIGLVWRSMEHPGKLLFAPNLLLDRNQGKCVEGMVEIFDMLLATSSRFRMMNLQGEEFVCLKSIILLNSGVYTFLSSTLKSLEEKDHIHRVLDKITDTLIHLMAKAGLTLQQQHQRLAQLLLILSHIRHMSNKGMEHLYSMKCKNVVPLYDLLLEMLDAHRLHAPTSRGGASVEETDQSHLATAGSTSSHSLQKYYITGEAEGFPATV
Description: CHO cells overexpressing the estrogen receptor were grown in 150 mm^2 dishes in DMEM+10% dextran coated charcoal, stripped fetal bovine serum. The plates were washed twice with PBS and once with 10 mM Tris-HCl, pH 7.4, 1 mM EDTA. Cells were harvested by scraping the surface and then the cell suspension was placed on ice. Cells were disrupted with a hand-held motorized tissue grinder using two, 10-second bursts. The crude preparation was centrifuged at 12,000 g for 20 minutes followed by a 60 minute spin at 100,000 g to produce a ribosome free cytosol. The cytosol was then frozen and stored at -80° C. Protein concentration of the cytosol was estimated using the BCA assay with reference standard protein.
The competition assay was performed in a 96-well plate (polystyrene*) which binds <2.0% of the total input [^3 H]-17β-estradiol and each data point was gathered in triplicate. 100 uG/100 uL of the receptor preparation was aliquoted per well. A saturating dose of 2.5 nM [^3 H] […] Samples were counted to 2% or 10 minutes, whichever occurs first. […] Also, wells containing radioactivity but no cytosol were processed with charcoal to estimate unremovable DPM of [^3 H] […]
Counts per minute (CPM) of radioactivity were automatically converted to disintegrated per minute (DPM) by the Beckman LS 7500 Scintillation Counter using a set of quenched standards to generate a H# for each sample. […]

uterus [1] = details: ovariectomized rat; versus Tamoxifen; cited from earlier work
bone [2] = details: ovariectomized rat; cited from earlier work
uterus [3] = details: in vivo; cited from earlier work
bone [4] = details: humans; cited from earlier work

Structure (SMILES): COc1ccc2c(c1)Cc1c-2n(Cc2ccc(OCCN3CCCCC3)cc2)c2ccc(O)cc12 [Example 4, 2-Methoxy-5-[4-(2-piperidin-1-yl-ethoxy)-benzyl]-5,10-dihydro-indeno[1,2-b]lindol-8ol]
- Emax at 1 µM (human estrogen receptor): -2%
- activity at 1 µM (human estrogen receptor): 83%

Structure (SMILES): COc1ccc2c(c1)CCc1c-2n(Cc2ccc(OCCN3CCCCC3)cc2)c2ccc(O)cc12 [Example 13, 3-Methoxy-11-[4-(2-piperidin-1-yl-ethoxy)-benzyl]-5,11-dihydro-6H-benzof[a]carbazol-8-ol]
- binding to the ER receptor (in words) (estrogen receptor): bind better to the ER receptor than the indenoindole #6
- Emax at 1 µM (human estrogen receptor): -7%
- activity at 1 µM (human estrogen receptor): 1%

Structure (SMILES): COc1ccc2c(c1)CCc1c-2n(Cc2ccc(OCCN3CCCCCC3)cc2)c2ccc(O)cc12 [Example 14, 11-[4-(2-Azepan-1-yl-ethoxy)-benzyl]-3-methoxy-5,11-dihydro-6H-benzo[a]carbazol-8-ol]
- binding to the ER receptor (in words) (estrogen receptor): bind better to the ER receptor than the indenoindole #6
- Emax at 1 µM (human estrogen receptor): 1%
- activity at 1 µM (human estrogen receptor): 8%

Structure (SMILES): O=C(c1ccc(OCCN2CCCCC2)cc1)c1c(-c2ccc(O)cc2)sc2cc(O)ccc12 [Raloxifene]
- uterine growth (uterus [1]): stimulate uterine growth in the ovariectornized rat to a lesser extent than Tamoxifen
- ability to spare bone / bone mass (bone [2]): maintaining the ability to spare bone

Structure (SMILES): CC/C(=C(\c1ccccc1)c1ccc(OCCN(C)C)cc1)c1ccccc1 [tamoxifen]
- agonism in the uterus (uterus [3]): partial agonist in the uterus
- effect on the bone (bone [4]): estrogen agonist-like effect on the bone
